One test has as its system CYPIR. The class given is in vivo, Cyperus iria. A digest of the protocol: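 Greenhouse plants at first to fourth true leaf stage were sprayed postemergence at 187 L/ha with SC-formulated Compound A (acid equivalent basis), alone or with insecticides, in 1.25% v/v crop oil concentrate. Injury was scored visually 0–100% versus untreated plants after about 3 weeks; expected mixture effects were calculated by Colby's equation.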

The next test has as its system LEFCH. In words: whole plant or invertebrate. The class given is in vivo, Leptochloa chinensis. An outline of the steps:
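Greenhouse plants at first-fourth true leaf stage sprayed post-emergence at 187 L/ha with SC formulations (acid equivalent basis) in 1.25% v/v crop oil concentrate. Visual injury scored 0-100% versus untreated after ~3 weeks; expected mixture effects by Colby's equation.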

SMILES strings stand for the structures. Values joined by “and” are separate entries in the source; they are usually repeats but may differ in a detail not shown here. Equal values may be shown once. Read-outs that look alike come from different tables or passages of the source.

Regarding `COc1c(Cl)ccc(-c2nc(C(=O)O)c(Cl)c(N)c2F)c1F` [Compound A Acid, 4-amino-3-chloro-6-(4-chloro-2-fluoro-3-methoxyphenyl)-5-fluoropyridine-2-carboxylic acid], the “Visual Weed Control (%) - 20 DAA CYPIR Obs” value in the test with CYPIR (4.38 g ae/ha alone) is given as 30%. Moreover, the “Visual Weed Control (%) - 20 DAA LEFCH Obs” value in the test with LEFCH (4.38 g ae/ha alone) came out at 0%; in the test with LEFCH (5.3 g ae/ha alone), 0%; in the test with LEFCH (10.6 g ae/ha alone), 20%; in the test on LEFCH (21.2 g ae/ha alone), 45%. For the same compound, the “Visual Weed Control (%) - 21 DAA LEFCH Obs” value turned out to be 30% in the test with LEFCH (21 DAA, 8.75 g ae/ha alone) and 30% in the test on LEFCH (21 DAA, 17.5 g ae/ha alone).
As to `COc1c(Cl)ccc(-c2nc(C(=O)OCc3ccccc3)c(Cl)c(N)c2F)c1F` [Compound A Benzyl Ester], the “Visual Weed Control (%) - 22 DAA CYPIR Obs” value with CYPIR (4.38 g ae/ha alone) is reported as 70%. Besides, the “Visual Weed Control (%) - 21 DAA CYPIR Obs” value in the test with CYPIR (8 g ae/ha alone) came out at 50%; in the test on CYPIR (21 DAA, 8 g ae/ha alone) it was 50%. The “Visual Weed Control (%) - 20 DAA LEFCH Obs” value in the test on LEFCH (4.38 g ae/ha alone) is 15% and 20%; in the test on LEFCH (8 g ae/ha alone), 15%; with LEFCH (8.75 g ae/ha alone) it was 30% and 35%; in the test on LEFCH (16 g ae/ha alone) it was 25%; with LEFCH (17.5 g ae/ha alone) it was 50% and 60%; in the test on LEFCH (32 g ae/ha alone), 30%. Also, the “Visual Weed Control (%) - 21 DAA LEFCH Obs” value was 10% in the test with LEFCH (4.38 g ae/ha alone); 25% with LEFCH (8.75 g ae/ha alone); 30% with LEFCH (17.5 g ae/ha alone); 15% in the test on LEFCH (21 DAA, 8 g ae/ha alone); 15% in the test with LEFCH (21 DAA, 16 g ae/ha alone); 50% in the test on LEFCH (21 DAA, 17.5 g ae/ha alone). For the same compound, the “Visual Weed Control (%) - 21 DAA LEFCH Obs” value in the test on LEFCH (21 DAA, 32 g ae/ha alone) is on record as 25%. The “Visual Weed Control (%) - 19 DAA LEFCH Obs” value turned out to be 45% with LEFCH (8 g ae/ha alone); 45% in the test on LEFCH (16 g ae/ha alone); 45% with LEFCH (19 DAA, 8 g ae/ha alone); 45% in the test with LEFCH (19 DAA, 16 g ae/ha alone); 50% in the test on LEFCH (19 DAA, 32 g ae/ha alone); 50% with LEFCH (32 g ae/ha alone). In addition, the pest or weed control at 4.38 g/ha with LEFCH (Dinebra chinensis, post-emergence, 528 h, 4.38 g ae/ha alone, read-out: Visual Weed Control (%) - 22 DAA LEFCH Obs) came to 30%. The pest or weed control at 8 g/ha in the test with LEFCH (Dinebra chinensis, post-emergence, 528 h, 8 g ae/ha alone, read-out: Visual Weed Control (%) - 22 DAA LEFCH Obs) amounted to 25%; in the test with LEFCH (Dinebra chinensis, post-emergence, 528 h, 22 DAA, 8 g ae/ha alone, second part of Table 18, read-out: Visual Weed Control (%) - 22 DAA LEFCH Obs), 18%. Moreover, the pest or weed control at 16 g/ha came out at 30% in the test with LEFCH (Dinebra chinensis, post-emergence, 528 h, 16 g ae/ha alone, read-out: Visual Weed Control (%) - 22 DAA LEFCH Obs); 25% in the test on LEFCH (Dinebra chinensis, post-emergence, 528 h, 22 DAA, 16 g ae/ha alone, read-out: Visual Weed Control (%) - 22 DAA LEFCH Obs); 43% with LEFCH (Dinebra chinensis, post-emergence, 528 h, 22 DAA, 16 g ae/ha alone, second part of Table 18, read-out: Visual Weed Control (%) - 22 DAA LEFCH Obs). In addition, the pest or weed control at 32 g/ha in the test with LEFCH (Dinebra chinensis, post-emergence, 528 h, 22 DAA, 32 g ae/ha alone, read-out: Visual Weed Control (%) - 22 DAA LEFCH Obs) came out at 55%; in the test on LEFCH (Dinebra chinensis, post-emergence, 528 h, 22 DAA, 32 g ae/ha alone, second part of Table 18, read-out: Visual Weed Control (%) - 22 DAA LEFCH Obs) it was 53%; in the test with LEFCH (Dinebra chinensis, post-emergence, 528 h, 32 g ae/ha alone, read-out: Visual Weed Control (%) - 22 DAA LEFCH Obs) it was 60%.
Take `CC(c1ccc(C(F)(F)F)nc1)S(C)(=O)=NC#N` (stereo not shown) [Sulfoxaflor, N-[methyloxido[1-[6-(trifluoromethyl)-3-pyridinyl]ethyl]-λ^4-sulfanylidene]cyanamide]: the “Visual Weed Control (%) - 21 DAA CYPIR Obs” value in the test with CYPIR (21 DAA, 75 g ai/ha alone) was 0%; in the test with CYPIR (21 DAA, 150 g ai/ha alone), 0%. The “Visual Weed Control (%) - 21 DAA LEFCH Obs” value is 0% with LEFCH (21 DAA, 12.5 g ai/ha alone); 0% in the test on LEFCH (21 DAA, 25 g ai/ha alone); 0% with LEFCH (21 DAA, 37.5 g ai/ha alone); 0% in the test on LEFCH (21 DAA, 50 g ai/ha alone); 0% in the test with LEFCH (21 DAA, 75 g ai/ha alone); 0% in the test on LEFCH (21 DAA, 150 g ai/ha alone).

(Values after patent US9237747B2, “Herbicidal compositions comprising 4-amino-3-chloro-5-fluoro-6-(4-chloro-2-fluoro-3-methoxyphenyl) pyridine-2-carboxylic acid or a derivative thereof and insecticides” (priority 2013, dated 2016).)
